# Results taken from patent US12310954B2, “Salivary gland regeneration” (The Regents of the University of California, priority 2018, dated 2025).
# Experiments:
# [1] = system: SOX2^+ cells of the SLG; test: Pilocarpine treatment of mice, SOX2/Ki67 immunostaining of sublingual gland; assay type: in vivo, mouse; settings: wild-type mice, I.P. 4.5 mg/kg, vs saline
# Description: Adult male C57BL/6 mice (aged between 6 and 8 weeks) were treated with pilocarpine (Sigma-Aldrich, P0472; 0.68 mg/ml in 0.9% sterile saline). Mice were anesthetized using isoflurane and injected I.P. with pilocarpine at a dose of 4.5 mg/kg bodyweight (200 μl), or 0.9% saline as a vehicle control. Mice were euthanized after 18 h and glands processed for immunofluorescent analysis. Whole-mount salivary gland and tissue section immunofluorescence analysis has been previously described (Knox et al., 2010). In brief, tissue was fixed with either ice-cold acetone/methanol (1:1) for 1 min or 4% PFA for 20-30 min followed by permeabilizing with 0.1-0.3% Triton X. Tissue was blocked overnight at 4° C. with 10% Donkey Serum (Jackson Laboratories, ME), 1% BSA (Sigma-Aldrich), and MOM IgG-blocking reagent (Vector Laboratories, CA) in 0.01% PBS-Tween 20. […] Antibodies were detected using Cy2-, Cy3-, or Cy5-conjugated secondary Fab fragment antibodies (Jackson Laboratories) and nuclei stained using Hoechst 33342 (1:1,000, Sigma-Aldrich). Fluorescence was analyzed using a Leica Sp5 confocal microscope and NIH ImageJ software. For immunofluorescent analyses (e.g., FIG. 2D), cells positively stained for markers were counted using ImageJ. Acinar cell size was measured using ImageJ. […]
# [2] = long term oral use in patients; cited from earlier work
# [3] = continuous oral administration, irradiated mice, vs untreated controls; cited from earlier work
# [4] = long term oral administration; cited from earlier work
structure (smiles),measurement,setting,value
CC[C@@H]1C(=O)OC[C@@H]1Cc1cncn1C [pilocarpine],percentage of SOX2^+ cells,[1]; 18 h post-injection,not significantly changed
same,percentage of proliferating SOX2^+ cells (SOX2^+Ki67^+ cells),[1]; sacrificed at 18 h,increased
same,salivary gland function,[2],improves salivary gland function
same,salivary flow,[3],promoted salivary flow
same,tumorigenicity,[4],not shown to be tumorigenic
